# Measured values taken from US20180318343A1, “THERAPEUTIC AGENT FOR SKIN WOUND OR ROUGH SKIN” (JFE MINERAL COMPANY, LTD., priority 2015, published 2018).
# Experiments:
# [1] = Dissolution test by stirring method in saline; settings: per BET surface area, mass ratio 1:50, stirring 500 rpm, 37° C., 3 hours
# Description: The amount of dissolved Zn^2+ ions is measured in the present description, as follows: The surface areas of samples, which are produced with varying pH values at production by the same process as that for Preparation Example 2 of Examples to be described later, are measured beforehand by the BET method (BET specific surface area analyzer: High Precision, Multi-Analyte Gas Absorption Analyzer, manufactured by Quantachrome Instruments Japan G.K.). For each sample, the Zn^2+ ion concentration after stirring in saline is measured with an ICP emission spectrometer (ICPE-9000, manufactured by Shimadzu Corporation) to thereby obtain the amount of dissolved Zn^2+ ions, and then the amount of dissolved Zn^2+ ions is divided by the previously measured surface area. The mass ratio between each sample and the saline is set to 1:50, and the amount of Zn^2+ ions dissolved in the saline is measured after 3-hour stirring at 500 rpm at 37° C. by means of a rotor. […]
# A dissolution test by a stirring method was conducted on 0.6 g each of dry powders obtained in Preparation Example 2 using 30 g of saline, and the amount of dissolved Zn^2+ ions and the pH were measured. […] Then the pH and the Zn^2+ ion concentration after the dissolution test were measured. […]
# fibroblast = settings: cited from earlier work
# skin = settings: in vivo; cited from earlier work
Structure (SMILES),Amount of dissolved Zn^2+ ions after dissolution test [1],zinc ion concentration that does not exhibit toxicity to a fibroblast (fibroblast),zinc ion level leading to increased inflammatory cell infiltration in skin and remarkably delayed reepithelization (skin)
[OH-].[OH-].[Zn+2] [zinc hydroxide],less than 0.1 μg/m^2,,
[Zn+2] [zinc ions],,not more than 500 μmol/L,not less than 15 mmol/L
[O]=[Zn] [zinc oxide],sufficient,,
